The assay concerns Mycobacterium tuberculosis strain EH4.0 expressing green-fluorescent protein (GFP). Description: microbe, parasite or virus in culture. The class given is cell-based. To be noted: 168 h, read-out: pIC50 (converted).

Turning to `CCc1nc2cc(OC)c(OC)cn2c1C(=O)NCc1ccc(N2CCN(S(=O)(=O)C(F)(F)F)C(OC)=N2)c(F)c1` [Compound 53], the IC50 was 81.3 nM.

Take `CCc1nc2cc3c(cn2c1C(=O)NCc1ccc(N2CCN(S(=O)(=O)C(F)(F)F)C=N2)c(F)c1)OCC3` [Compound 131]: the IC50 is 8.71 nM.

Take `O=C(NCc1ccc(N2CCN(S(=O)(=O)C(F)(F)F)C=N2)cc1)c1c(C2CC2)nc2ncc(Cl)cn12` [Compound 7]: the IC50 was 63.1 nM.

As to `COC1=NN(c2ccc(CNC(=O)c3c(C(F)(F)F)nc4ccc(Cl)cn34)cc2F)CCN1S(=O)(=O)C(F)(F)F` [Compound 117], the IC50 was 14.8 nM.

For the compound `O=C(NCc1ccc(N2CCN(S(=O)(=O)C(F)(F)F)C=N2)c(F)c1)c1c(C(F)(F)F)nc2n1CCCC2` [Compound 123], the IC50 is 10.2 nM.

As to `CCc1nc2nc3c(cn2c1C(=O)NCc1ccc(N2CCN(S(=O)(=O)C(F)(F)F)C(OC)=N2)c(F)c1)CCOC3` [Compound 180], the IC50 was 3.98 nM.

Turning to `CCc1nc2ncc(F)cn2c1C(=O)NCc1ccc(N2CCN(S(=O)(=O)C(F)(F)F)C=N2)c(F)c1` [Compound 130], the IC50 is 8.71 nM.

For `CCc1nc2c(C)cc(Cl)cn2c1C(=O)NCc1ccc(N2CCN(S(=O)(=O)C(F)(F)F)C=N2)c(F)c1` [Compound 85], the IC50 is 95.5 nM.

On to `CCc1nc2ncc(Cl)cn2c1C(=O)NCc1cnc(N2CCN(S(=O)(=O)C(F)(F)F)C=N2)c(F)c1` [Compound 168], for which the IC50 was 38.9 nM.

Turning to `O=C(NCc1cnc(N2CCN(S(=O)(=O)C(F)(F)F)C=N2)c(F)c1)c1c(C(F)(F)F)nc2ccc(Cl)cn12` [Compound 167], the IC50 is 87.1 nM.

Turning to `CCc1nc2sc(Cl)cn2c1C(=O)NCc1ccc(N2CCN(S(=O)(=O)C(F)(F)F)C=N2)c(F)c1` [Compound 135], the IC50 is 7.24 nM.

For `CCc1nc2c(F)cc(C)cn2c1C(=O)NCc1ccc(N2CCNC=N2)c(F)c1` [Compound 198], the IC50 was 93.3 nM.

On to `CCc1nc2ccc(Cl)cn2c1C(=O)NCc1cnc(N2CCN(S(=O)(=O)C(F)(F)F)C=N2)c(C)c1` [Compound 208], for which the IC50 was 69.2 nM.

Turning to `CCc1nc2c(F)cc(C)cn2c1C(=O)NCc1cnc(N2CCNC=N2)c(F)c1` [Compound 187], the IC50 is at least 501 nM.

As to `CCc1nc2ncc(C)cn2c1C(=O)NCc1ccc(N2CCN(S(=O)(=O)C(F)(F)F)C(OC)=N2)cc1` [Compound 200], the IC50 was 5.5 nM.

`CCc1nc2ccc(Cl)cn2c1C(=O)NCc1ccc(N2CCN(S(=O)(=O)C(F)(F)F)C(CCOC)=N2)cc1` [Compound 55]: the IC50 is 25.7 nM.

For `CCc1nc2ccc(CCCOC)cn2c1C(=O)NCc1ccc(N2CCN(S(=O)(=O)C(F)(F)F)C=N2)cc1` [Compound 63], the IC50 is at least 501 nM.

Regarding `CCc1nc2nc(C)c(Cl)cn2c1C(=O)NCc1ccc(N2CCNC=N2)c(F)c1` [Compound 199], the IC50 is over 500 nM.

With `CCc1nc2cc(OC)c(C)cn2c1C(=O)NCc1ccc(N2CCN(S(=O)(=O)C(F)(F)F)C=N2)c(F)c1` [Compound 106], the IC50 was 25.7 nM.

On to `CCc1nc2nc(C)ccn2c1C(=O)NCc1ccc(N2CCN(S(=O)(=O)C(F)(F)F)C=N2)c(F)c1` [Compound 111], for which the IC50 was 18.2 nM.

For `O=C(NCc1ccc(N2CCN(S(=O)(=O)C(F)(F)F)C=N2)c(F)c1)c1c(C(F)F)nc2ccccn12` [Compound 159], the IC50 is 1.2 nM.

On to `CCc1nc2nc3c(cn2c1C(=O)NCc1ccc(N2CCN(S(=O)(=O)C(F)(F)F)C=N2)c(F)c1)OCCN3C` [Compound 205], for which the IC50 was 66.1 nM.

For the compound `CCc1nc2ncc(C)cn2c1C(=O)NCc1ccc(N2CCN(S(=O)(=O)C(F)(F)F)C(OC)=N2)c(F)c1` [Compound 193], the IC50 was 0.891 nM.

Take `CCc1nc2nc(N3CCCC3)c(Cl)cn2c1C(=O)NCc1ccc(N2CCN(S(=O)(=O)C(F)(F)F)C=N2)c(F)c1` [Compound 82]: the IC50 is at least 501 nM.

As to `CCc1nc2n(c1C(=O)NCc1ccc(N3CCN(S(=O)(=O)C(F)(F)F)C=N3)cc1)CCCC2` [Compound 3], the IC50 was 31.6 nM.

For the origin of these results see patent publication US20220340564A1, “ANTIBACTERIAL COMPOUNDS” (Janssen Sciences Ireland Unlimited Company, priority 2019, published 2022).
